Patent US8501446B2 (Vertex Pharmaceuticals Incorporated, priority 2004, dated 2013)

What was measured:
Format in all cases: biochemical
JAK2 = JAK2 (Homo sapiens, UniProt O60674); test: JAK2 inhibition assay (radioactive enzyme assay, as for JAK3); conditions: average Ki if more than one value determined
Procedure: (§1) Compounds were screened for their ability to inhibit JAK3 using a standard radioactive enzyme assay. 1.5 μL/well of a DMSO stock containing serial dilutions of a compound of the present invention (concentrations ranging from 667 μM to 46 nM) was placed in a 96 well polycarbonate plate. 50 μL per well of kinase buffer (100 mM HEPES (pH 7.4), 10 mM MgCl2, 25 mM NaCl, 1 mM DTT, and 0.01% bovine serum albumin (BSA)) containing 2 μM poly(Glu)4Tyr and 10 μM ATP was also added to the plate. To initiate the reaction, 50 μL kinase buffer containing 2 nM JAK3 enzyme was added. Final ATP concentration was 5 μM [γ-^33P] ATP (200 μCi ^33P ATP/μmol ATP (Perkin Elmer, Cambridge, Mass.). After 20 minutes at room temperature (25° C.), the reaction was stopped by adding 50 μL 20% trichloroacetic acid (TCA)/0.4 mM ATP to each well. The entire content of each well was then transferred to a 96 well glass fiber filter plate using a TomTek Cell Harvester. After washing, 60 μL scintillation fluid was added and ^33P incorporation detected using a Perkin Elmer TopCount. After removing mean background values for all of the data points the data was fit using Prism software to obtain a Ki(app). Inhibition of JAK2 was measured as above except that final poly(Glu)4Tyr concentration was 15 μM and final ATP concentration was 12 μM.

JAK3 = target: T1, JAK3 (Homo sapiens, UniProt P52333); test: JAK3 inhibition assay (standard radioactive enzyme assay); conditions: average Ki if more than one value determined
T1 sequence (P52333 1-1124): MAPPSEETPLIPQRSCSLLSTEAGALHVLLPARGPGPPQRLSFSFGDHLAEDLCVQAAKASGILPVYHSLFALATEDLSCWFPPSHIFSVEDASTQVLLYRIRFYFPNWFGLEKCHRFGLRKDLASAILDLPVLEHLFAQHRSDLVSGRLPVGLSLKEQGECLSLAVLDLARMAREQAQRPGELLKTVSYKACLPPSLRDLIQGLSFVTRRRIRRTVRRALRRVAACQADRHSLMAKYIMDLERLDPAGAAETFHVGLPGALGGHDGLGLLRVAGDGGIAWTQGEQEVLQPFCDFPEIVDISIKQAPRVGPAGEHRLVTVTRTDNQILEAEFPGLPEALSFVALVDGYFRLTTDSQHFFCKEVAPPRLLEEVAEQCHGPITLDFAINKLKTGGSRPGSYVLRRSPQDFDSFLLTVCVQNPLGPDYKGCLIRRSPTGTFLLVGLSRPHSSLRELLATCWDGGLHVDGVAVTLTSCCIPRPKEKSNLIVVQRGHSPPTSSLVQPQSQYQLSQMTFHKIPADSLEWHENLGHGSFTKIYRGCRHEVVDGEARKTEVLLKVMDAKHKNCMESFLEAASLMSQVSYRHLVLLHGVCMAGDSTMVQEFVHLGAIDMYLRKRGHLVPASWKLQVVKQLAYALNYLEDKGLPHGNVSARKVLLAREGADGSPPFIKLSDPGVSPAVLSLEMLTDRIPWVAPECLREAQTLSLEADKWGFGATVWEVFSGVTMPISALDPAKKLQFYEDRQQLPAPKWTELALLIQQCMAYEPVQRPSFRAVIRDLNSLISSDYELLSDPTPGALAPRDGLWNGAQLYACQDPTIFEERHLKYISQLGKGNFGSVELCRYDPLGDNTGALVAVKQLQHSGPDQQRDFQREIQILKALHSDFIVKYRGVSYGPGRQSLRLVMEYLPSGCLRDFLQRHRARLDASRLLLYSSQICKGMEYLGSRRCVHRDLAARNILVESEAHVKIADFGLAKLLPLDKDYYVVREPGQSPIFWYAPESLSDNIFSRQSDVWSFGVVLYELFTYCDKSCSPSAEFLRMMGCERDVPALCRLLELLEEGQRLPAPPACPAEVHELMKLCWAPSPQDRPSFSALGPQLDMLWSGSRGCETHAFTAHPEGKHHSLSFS
Procedure: as §1

ROCK I (AA 6-553) = target: T2, ROCK I (AA 6-553) (Homo sapiens, UniProt Q13464); test: ROCK inhibition assay, standard coupled enzyme system ("Enzyme"); conditions: enzyme-linked assay
T2 construct: ROCK I (AA 6-553)
Procedure: Compounds were screened for their ability to inhibit ROCK I (AA 6-553) activity using a standard coupled enzyme system (Fox et al. (1998) Protein Sci. 7, 2249). Reactions were carried out in a solution containing 100 mM HEPES (pH 7.5), 10 mM MgCl2, 25 mM NaCl, 2 mM DTT and 1.5% DMSO. Final substrate concentrations in the assay were 45 μM ATP (Sigma Chemicals, St Louis, Mo.) and 200 μM peptide (American Peptide, Sunnyvale, Calif.). Reactions were carried out at 30° C. and 45 nM ROCK L. Final concentrations of the components of the coupled enzyme system were 2.5 mM phosphoenolpyruvate, 350 μM NADH, 30 μg/ml pyruvate kinase and 10 μg/ml lactate dehydrogenase.

[1] = target: T3, full length Aurora-A (AA 1-403) (Homo sapiens, UniProt O14965); test: Aurora-A inhibition assay, standard coupled enzyme system; conditions: average Ki if more than one value determined
T3 construct: full length Aurora-A (AA 1-403)
T3 sequence (O14965 1-403): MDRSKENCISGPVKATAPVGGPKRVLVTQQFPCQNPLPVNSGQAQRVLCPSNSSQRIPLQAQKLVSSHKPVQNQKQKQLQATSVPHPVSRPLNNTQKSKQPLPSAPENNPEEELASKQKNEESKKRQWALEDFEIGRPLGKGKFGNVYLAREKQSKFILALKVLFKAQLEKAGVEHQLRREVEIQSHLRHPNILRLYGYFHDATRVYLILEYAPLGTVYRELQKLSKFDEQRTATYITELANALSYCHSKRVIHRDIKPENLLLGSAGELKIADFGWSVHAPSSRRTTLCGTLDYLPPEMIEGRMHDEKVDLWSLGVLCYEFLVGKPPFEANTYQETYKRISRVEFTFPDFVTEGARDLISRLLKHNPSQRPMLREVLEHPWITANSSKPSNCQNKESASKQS
Procedure: Compounds were screened for their ability to inhibit full length Aurora-A (AA 1-403) activity using a standard coupled enzyme system (Fox et al., Protein Sci. 7, pp. 2249 (1998)). Reactions were carried out in a solution containing 100 mM HEPES (pH 7.5), 10 mM MgCl2, 25 mM NaCl, 300 μM NADH, 1 mM DTT and 3% DMSO. Final substrate concentrations in the assay were 200 μM ATP (Sigma Chemicals, St Louis, Mo.) and 800 μM peptide (LRRASLG, American Peptide, Sunnyvale, Calif.). Reactions were carried out at 30° C. and 35 nM Aurora-A. Final concentrations of the components of the coupled enzyme system were 2.5 mM phosphoenolpyruvate, 200 μM NADH, 60 μg/ml pyruvate kinase and 20 μg/ml lactate dehydrogenase.
An assay stock buffer solution was prepared containing all of the reagents listed above with the exception of ATP and the test compound of interest. The assay stock buffer solution (60 μl) was incubated in a 96 well plate with 2 μl of the test compound of interest at final concentrations spanning 0.002 μM to 30 μM at 30° C. for 10 min. Typically, a 12 point titration was conducted by preparing serial dilutions (from 1 mM compound stocks) with DMSO of the test compounds in daughter plates. The reaction was initiated by the addition of 5 μl of ATP (final concentration 200 μM). Rates of reaction were obtained using a Molecular Devices Spectramax plate reader (Sunnyvale, Calif.) over 10 min at 30° C. The Ki values were determined from the rate data as a function of inhibitor concentration using computerized nonlinear regression (Prism 3.0, Graphpad Software, San Diego, Calif.). Aurora-C activity was screened in a similar manner using Aurora-C protein. Aurora-B activity was screened using a radioactive assay, such as described in Examples 1 and 2, but using Aurora-B protein.

JAK2, sequence (O60674 whole entry, species assumed): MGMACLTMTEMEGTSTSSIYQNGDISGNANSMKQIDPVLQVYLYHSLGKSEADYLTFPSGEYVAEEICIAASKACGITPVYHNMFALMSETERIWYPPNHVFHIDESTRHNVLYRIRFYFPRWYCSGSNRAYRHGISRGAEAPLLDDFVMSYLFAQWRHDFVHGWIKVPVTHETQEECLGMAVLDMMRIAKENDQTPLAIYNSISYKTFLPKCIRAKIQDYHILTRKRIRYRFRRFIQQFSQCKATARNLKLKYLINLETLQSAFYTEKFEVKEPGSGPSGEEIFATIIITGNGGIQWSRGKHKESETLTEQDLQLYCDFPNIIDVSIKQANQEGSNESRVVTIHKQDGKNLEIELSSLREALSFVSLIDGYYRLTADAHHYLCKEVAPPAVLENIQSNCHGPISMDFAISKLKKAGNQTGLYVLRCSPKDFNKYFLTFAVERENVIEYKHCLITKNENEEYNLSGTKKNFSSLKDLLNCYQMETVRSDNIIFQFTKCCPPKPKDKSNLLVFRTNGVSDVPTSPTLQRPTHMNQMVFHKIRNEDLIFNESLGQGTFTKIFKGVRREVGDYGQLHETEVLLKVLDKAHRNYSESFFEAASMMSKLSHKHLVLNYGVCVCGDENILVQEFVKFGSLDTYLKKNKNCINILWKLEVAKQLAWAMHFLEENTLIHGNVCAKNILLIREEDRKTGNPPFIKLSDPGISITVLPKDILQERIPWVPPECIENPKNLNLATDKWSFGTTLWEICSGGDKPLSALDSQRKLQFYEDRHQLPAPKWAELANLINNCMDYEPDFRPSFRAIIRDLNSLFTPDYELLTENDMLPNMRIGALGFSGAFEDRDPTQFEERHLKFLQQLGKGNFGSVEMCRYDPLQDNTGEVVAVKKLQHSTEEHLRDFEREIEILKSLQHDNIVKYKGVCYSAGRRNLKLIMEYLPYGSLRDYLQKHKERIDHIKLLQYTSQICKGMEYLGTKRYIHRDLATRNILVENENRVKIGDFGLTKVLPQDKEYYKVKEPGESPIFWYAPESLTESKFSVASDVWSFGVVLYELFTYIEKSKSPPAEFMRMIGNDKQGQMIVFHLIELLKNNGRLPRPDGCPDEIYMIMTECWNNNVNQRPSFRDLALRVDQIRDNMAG
T2 sequence (Q13464 6-553, species assumed): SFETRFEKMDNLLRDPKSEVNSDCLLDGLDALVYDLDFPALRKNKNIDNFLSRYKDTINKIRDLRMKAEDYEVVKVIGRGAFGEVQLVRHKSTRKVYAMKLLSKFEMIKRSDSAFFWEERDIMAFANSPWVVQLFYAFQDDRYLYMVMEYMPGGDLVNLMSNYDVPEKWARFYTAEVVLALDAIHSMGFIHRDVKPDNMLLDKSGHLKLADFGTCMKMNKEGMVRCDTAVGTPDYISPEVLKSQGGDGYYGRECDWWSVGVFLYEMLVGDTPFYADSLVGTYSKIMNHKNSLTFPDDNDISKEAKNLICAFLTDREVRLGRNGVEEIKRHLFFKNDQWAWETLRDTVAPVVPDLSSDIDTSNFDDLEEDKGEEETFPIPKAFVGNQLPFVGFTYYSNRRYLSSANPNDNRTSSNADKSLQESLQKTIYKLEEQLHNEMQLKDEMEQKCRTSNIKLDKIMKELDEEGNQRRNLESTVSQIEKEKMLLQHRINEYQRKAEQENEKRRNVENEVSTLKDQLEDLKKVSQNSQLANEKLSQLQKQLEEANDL

Ki (JAK2) [nM]	Ki (JAK3) [nM]	Ki (ROCK I (AA 6-553)) [nM]	Ki [1] [nM]	SMILES
500 to 5000	500 to 5000			CC(=O)N1[C@H](C)CN(c2cccc(-c3c[nH]c4ncc(C(=O)N5CCCCCC5)cc34)n2)C[C@@H]1C [Compound 55]
< 500	< 500			CC(=O)N1[C@H](C)CN(c2cccc(-c3c[nH]c4ncc(NC(=O)c5cccc(Cl)c5)cc34)n2)C[C@@H]1C [Compound 174]
< 500	< 500			O=C(O)c1ccc(-c2c[nH]c3ncc(Cl)cc23)cc1Cl [Compound 175]
< 500	< 500			N#Cc1ccc(-c2c[nH]c3ncc(Cl)cc23)cc1 [Compound 176]
500 to 5000	< 500			Cc1cccc(-c2c[nH]c3ncc(Cl)cc23)c1 [Compound 185]
	< 500	500 to 5000		COc1cnc2[nH]cc(-c3ncc(F)c(N[C@@H](C)C(=O)NCC(F)(F)F)n3)c2c1 [Compound 204]
	< 500	500 to 5000		CCOc1cnc2[nH]cc(-c3cccc(N4C[C@@H](C)N(C(C)=O)[C@@H](C)C4)n3)c2c1 [Compound 205]
	< 500	500 to 5000		CC(=O)N1[C@H](C)CN(c2cccc(-c3c[nH]c4ncc(OC(C)C)cc34)n2)C[C@@H]1C [Compound 206]
	< 500	500 to 5000		C=C(C)COc1cnc2[nH]cc(-c3cccc(N4C[C@@H](C)N(C(C)=O)[C@@H](C)C4)n3)c2c1 [Compound 207]
	< 500	500 to 5000		CC(=O)N1[C@H](C)CN(c2cccc(-c3c[nH]c4ncc(OCCCN5CCOCC5)cc34)n2)C[C@@H]1C [Compound 208]
	< 500	500 to 5000		CC(=O)N1[C@H](C)CN(c2cccc(-c3c[nH]c4ncc(OCCOC(C)C)cc34)n2)C[C@@H]1C [Compound 209]
		500 to 5000	< 500	Fc1cnc(-c2c[nH]c3ncc(Cl)cc23)nc1NCC1CCOC1 (stereo not shown) [Compound 373]
		500 to 5000	< 500	CNC(=O)COc1cccc([C@H](C)Nc2nc(-c3c[nH]c4ncc(Cl)cc34)ncc2F)c1 [Compound 376]
		500 to 5000	< 500	C[C@H](Nc1nc(-c2c[nH]c3ncc(Cl)cc23)ncc1F)c1cccc(OCCCN(C)C)c1 [Compound 377]
		500 to 5000	< 500	C[C@H](Nc1nc(-c2c[nH]c3ncc(C#CCO)cc23)ncc1F)c1ccc(F)cc1 [Compound 378]
		< 500	< 500	Fc1cnc(-c2c[nH]c3ncc(Cl)cc23)nc1NC[C@H]1CCNC1 [Compound 379]

Ki (JAK2) [nM]	Ki (JAK3) [nM]	Ki (ROCK I (AA 6-553)) [nM]	Ki [1] [nM]	SMILES
		< 500	< 500	Fc1cnc(-c2c[nH]c3ncc(Cl)cc23)nc1N[C@@H]1CCNC1 [Compound 381]
		500 to 5000	< 500	CC(=O)N1CCC(CNc2nc(-c3c[nH]c4ncc(Cl)cc34)ncc2F)CC1 [Compound 383]
		500 to 5000	< 500	COCC#Cc1cnc2[nH]cc(-c3ncc(F)c(N[C@@H](C)c4ccc(F)cc4)n3)c2c1 [Compound 384]
		500 to 5000	< 500	C[C@H](Nc1nc(-c2c[nH]c3ncc(Cl)cc23)ncc1F)C(=O)NCCS(C)(=O)=O [Compound 389]
		500 to 5000	500 to 5000	C[C@H](Nc1nc(-c2c[nH]c3ncc(Cl)cc23)ncc1F)C(=O)NC1CCS(=O)(=O)C1 (stereo partly shown) [Compound 390]
		500 to 5000	< 500	COCCNC(=O)[C@H](C)Nc1nc(-c2c[nH]c3ncc(Cl)cc23)ncc1F [Compound 392]
		500 to 5000	< 500	CNC(=O)[C@H](CC(C)C)Nc1nc(-c2c[nH]c3ncc(Cl)cc23)ncc1F [Compound 393]
		500 to 5000	< 500	C[C@H](Nc1nc(-c2c[nH]c3ncc(C#N)cc23)ncc1F)c1ccc(F)cc1 [Compound 394]
		500 to 5000	< 500	COC(=O)c1cc(F)c(N[C@@H](C)c2ccc(F)cc2)nc1-c1c[nH]c2ncc(Cl)cc12 [Compound 396]
		500 to 5000	< 500	COC(=O)c1cc(F)c(-c2c[nH]c3ncc(Cl)cc23)nc1N[C@@H](C)c1ccc(F)cc1 [Compound 398]
		< 500	< 500	N#Cc1cc(-c2c[nH]c3ncc(Cl)cc23)nc(N2CCNCC2)c1 [Compound 399]
		500 to 5000	< 500	C[C@@H](CC(=O)O)Nc1nc(-c2c[nH]c3ncc(Cl)cc23)ncc1F [Compound 401]
		500 to 5000	500 to 5000	CNC(=O)C[C@H](C)Nc1nc(-c2c[nH]c3ncc(Cl)cc23)ncc1F [Compound 402]
		500 to 5000	< 500	CCOc1cnc(-c2c[nH]c3ncc(Cl)cc23)nc1N[C@@H](C)C(=O)NCC(F)(F)F [Compound 408]
		< 500	< 500	O=Cc1cc(-c2c[nH]c3ncc(Cl)cc23)nc(N2CCNCC2)c1 [Compound 409]
		500 to 5000	< 500	CC(C)Oc1cnc(-c2c[nH]c3ncc(Cl)cc23)nc1N[C@@H](C)C(=O)NCC(F)(F)F [Compound 410]
